Laboratory results published in PMC9116478, “Population Pharmacokinetics of Caspofungin and Dose Simulations in Heart Transplant Recipients” (Antimicrobial Agents and Chemotherapy, 2022).
Like-named read-outs stand apart in the source and are kept apart here.

What was measured:
[1] = Population pharmacokinetics of caspofungin in HTx and non-HTx patients (plasma LC-MS/MS, NONMEM two-compartment model); type: in vivo, human (patients); settings: for clearance / Cmax: human, iv; for Cmax: read-out: Cmax (peak plasma concentration)
Excerpt: This was a prospective, single-center, open-label study. We recruited patients who underwent HTx at the Guangdong Provincial People’s Hospital in the SICU from July 2019 to July 2021. The inclusion criteria were: (i) patients aged 18 years or older who received caspofungin in SICU and accepted cardiac surgery and (ii) acceptability of multiple blood sampling. Patients who were allergic to caspofungin, those receiving drugs that can affect the PK of caspofungin, and those who could not receive multiple blood sampling were excluded. Patients who underwent HTx in SICU were recruited as the HTx group. Patients who never received HTx but underwent cardiac surgery and being in SICU were recruited in the control group. This study was approved by the Ethics Committee of Guangdong Provincial People’s Hospital, Guangdong Academy of Medical Sciences (approval number GDREC2018355(R1)H).
Caspofungin (Laboratoires Merck Sharp & Dohme Chibret, France) was administered by 1-h intravenous infusion at a dose of 50 mg every 24 h after a loading dose of 70 mg. Blood samples were collected before administration and at 1, 2, 6, 10, 16, and 24 h after the administration of caspofungin for at least 3 days. Plasma was separated by centrifugation of blood samples at 2,000 × g for 10 min at 4°C and stored at −80°C before analysis.
All plasma samples were detected by the liquid chromatography-tandem mass spectrometry (LC-MS/MS) method. First, 200 μL of acetonitrile-dissolved extraction working solution was added to 100 μL of plasma sample and mixed by vortexing at 3,000 rpm for 1 min. After centrifugation at 14,000 rpm for 15 min at 4°C, 2 μL supernatant was injected for LC-MS/MS analysis. The chromatographic column was an Agilent poroshell 120 SB-C18 (2.7 μm, 3.0 × 50 mm) column. The mobile phase was acetonitrile with 0.1% formic acid (A) and water with 0.1% formic acid (B). In the initial 0 to 0.5 min, the mobile phase was composed of 95% B and 5% A, and then within 0.5 to 1.5 min, the mobile phase B decreased linearly from 95% to 5% and remained unchanged for 1.5 to 2 min. Finally, it returned to 95% B and 5% A, and the entire analysis time was 5 min. The flow rate was 0.5 mL/min, and the column temperature was 35°C. A positive ion mode multiple reaction monitoring detection mode through electrospray ionization was performed with the transitions of m/z 547.3 → 538.2 for caspofungin and m/z 549.3 → 540.3 for caspofungin-d4 (IS). The linear range of the method was 0.4 to 25 mg/liter. The intraday and interday precision were 1.56 to 3.32% and 3.40 to 7.48%, respectively, and the deviation of accuracy was 0.96 to 2.21%.
We analyzed population PK data using the nonlinear mixed-effects modeling software NONMEM 7.3 (version 7.3, ICON plc, NY, USA). We employed one-, two-, and three-compartment pharmacokinetic models to fit the data and selected the most suitable basic structural model. Further, all potential covariates for caspofungin PK parameters reported in previous studies were analyzed. The covariates included demographic characteristics, renal function indices, liver function indices, HTx status, ECMO, and CRRT. Different covariate types have different variable models. Discrete covariates (such as sex) were modeled as follows. (1) Cij=Ctv,j×θjcov×enj
For continuous covariates (such as weight), an exponential model was selected with average covariates values and an adjusting factor. (2) Cij=Ctv,j×(cov/covave)^θj×e^ηj
In the above equations, Cij is the individual value. Ctv,j is the population typical value. cov in equation 1 is expressed as 0 or 1, cov in equation 2 is the value of the covariate, and θj is an impact factor. covave is the average value of a continuous covariate. Interindividual variability is shown as ηj, which is normally distributed with mean 0 and variance ω^2. Residual variability was modeled using a mixture of additive and proportional error models. […]

[2] = under normal plasma protein levels; cited from earlier work
Excerpt: Kurland et al. ([26]) found a negative correlation between hypoalbuminemia and elimination rate constant. […] They also identified total bilirubin (TBIL) as another covariate. ALB and TBIL levels were collectively found to affect CL of caspofungin.

Candida albicans = settings: pharmacodynamic target used for PTA; cited from earlier work
Excerpt: (§1) This study used Matlab software for simulations. The simulated data were based on the virtual patients with different ALB levels (25, 30, 37, 45, and 50 g/liter) at various dosage regimens (50-, 70-, 100-, 150-, and 200-mg maintenance dose). The median ALB level of the research population was 37 g/liter. We generated 1,000 virtual patients whose pharmacokinetic parameters were randomly assigned according to the distributions with the median of CL, θALB-CL, and CL interindividual variations and their calculated standard deviations from bootstraps (Table 2) for the simulations. AUC was calculate ...

Candida glabrata = settings: pharmacodynamic target used for PTA; cited from earlier work
Excerpt: as §1

Candida parapsilosis = settings: pharmacodynamic target used for PTA; cited from earlier work
Excerpt: as §1

[3] = Control group (n = 31), median (range)
[4] = Heart transplantation group (n = 27), median (range)
[5] = population estimate, 58 patients, 414 plasma concentrations, 50 mg q24h i.v. after 70 mg loading dose, two-compartment model

For `CC[C@H](C)C[C@H](C)CCCCCCCCC(=O)N[C@H]1C[C@@H](O)[C@@H](NCCN)NC(=O)[C@@H]2[C@@H](O)CCN2C(=O)[C@H]([C@H](O)CCN)NC(=O)[C@H]([C@H](O)[C@@H](O)c2ccc(O)cc2)NC(=O)[C@@H]2C[C@@H](O)CN2C(=O)[C@H]([C@@H](C)O)NC1=O` [caspofungin], the Vc [1, 3] was 5.27 L, the Vp [1, 3] was 6.31 L and the Vc [1, 4] was 3.14 L. It also gave a Vp [1, 4] of 4.98 L, a Q ([1]; control group, median) of 2.85 L/h and a clearance ([1]; population estimate, 58 patients (27 HTx, 31 non-HTx), 414 plasma concentrations, 50 mg q24h 1-h i.v. infusion after 70 mg loading dose, LC-MS/MS, two-compartment model, read-out: CL (clearance), final model estimate (converted)) of 6.42 mL/min. For the same molecule, the clearance ([1]; plasma, 50 mg, Control group (n = 31), median (range), read-out: CL (converted)) was 7.5 mL/min, the Cmax ([1]; plasma, 50 mg, Control group, non-HTx critically ill patients (n = 31), median (range), 50 mg q24h 1-h i.v. infusion after 70 mg loading dose) was 7890 ng/mL and the Cmax ([1]; plasma, 50 mg, Heart transplantation group (n = 27), median (range), 50 mg q24h 1-h i.v. infusion after 70 mg loading dose) was 11700 ng/mL. The clearance ([1]; plasma, 50 mg, Heart transplantation group (n = 27), median (range), read-out: CL (converted)) was 5.83 mL/min, the “Q (intercompartmental clearance), final model estimate” value [1, 5] was 2.85 L/h and the “Vc (volume of distribution of the central compartment), final model estimate” value [1, 5] was 4.27 L. The “Vp (volume of distribution of the peripheral compartment), final model estimate” value [1, 5] was 6.01 L, the protein binding rate [2] was 97% and the “target AUC/MIC value” (Candida albicans) was “greater than 865”. The “target AUC/MIC value” (Candida glabrata) was over 450 and the “target AUC/MIC value” (Candida parapsilosis) was > 1,185.
